The structures appear in SMILES notation. Substitutions are numbered along the chain they refer to. Like-named read-outs stand apart in the source and are kept apart here.

On the set-up of series [1]: method as in Lau et al. 1991. To be noted: administered systemically, animal studies; ref Lau et al. 1991; cited from earlier work.
Another series deals with CaSR. To be noted: ref Spurney et al. 1999; cited from earlier work.
Series [2] addresses T1, human TAS2R7 E264^7.32L mutant (Homo sapiens, UniProt Q9NYW3, E264L).
T1 construct: signal peptide: first 45 amino acid residues of rat somatostatin receptor 3 (N); expressed in transfected cells; host or cells: HEK293 PEAKrapid (ATCC CRL-2828), transient, co-transfected with Gα16-gust44
T1 sequence (Q9NYW3 1-318 E264L): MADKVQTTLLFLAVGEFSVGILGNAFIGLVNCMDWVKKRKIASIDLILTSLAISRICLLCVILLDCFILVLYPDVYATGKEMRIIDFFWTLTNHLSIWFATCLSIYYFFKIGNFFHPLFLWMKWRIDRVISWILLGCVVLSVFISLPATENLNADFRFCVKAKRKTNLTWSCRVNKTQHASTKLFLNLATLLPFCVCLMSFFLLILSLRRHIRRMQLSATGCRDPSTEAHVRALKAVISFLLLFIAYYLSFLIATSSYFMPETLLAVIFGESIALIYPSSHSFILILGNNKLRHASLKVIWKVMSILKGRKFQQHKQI
The series is described as follows: Calcium mobilization assay, TAS2R7 mutant E264L. It is filed as cell-based. To be noted: 20 mM metal ions except 0.16 mM Al2(SO4)3; cromolyn 10 mM; Figure 6B. The source says: (§1) The coding sequences of human TAS2Rs were amplified from human genomic DNA, then subcloned into pcDNA3.1(+) vector, with the herpes simplex virus glycoprotein D epitope (HSV) at the C-terminal and a signal peptide consisting of the first 45 amino acid residues of the rat somatostatin receptor 3 at the N-terminal, essentially as described previously ([Bufe et al. 2002]). Point mutations in human TAS2R7 (NCBI Reference Sequence: NP_076408.1) were constructed by site-directed mutagenesis. All the constructs were confirmed by Sanger sequencing.
(§2) Human embryonic kidney 293 (PEAKrapid, ATCC # CRL-2828) cells were cultured in Opti-MEM medium with 4% fetal bovine serum. One day before transfection, cells were seeded on a 96-well plate at a density of 25 000 per well. Cells were then transiently transfected with a TAS2R construct (0.1 µg/well) along with a G protein Gα16-gust44 (0.1 µg/well) construct by Lipofectamine 2000 (0.5 µl/well). For controls, only Gα16-gust44 was used (mock transfection). Twenty-four hours after transfection, cells were washed with HBSS including 10 mM HEPES and loaded with Fluo-4 in the dark for 1 h. After incubation, cells were washed 2 times with HBSS (including 10 mM HEPES), incubated in the dark for another 30 min, and then washed with assay solution once more before running the assay using a FlexStation III reader. Relative fluorescence units (excitation at 494 nm, emission at 516 nm, and auto cutoff at 515 nm) were read every 2 s for 2 min. Calcium mobilization traces were recorded.
Calcium mobilization traces were raw data obtained from single wells. Changes in fluorescence (ΔF) were calculated as the peak fluorescence minus baseline fluorescence ([Lei et al. 2015]). The calcium mobilization was quantified as the percentage of change (ΔF) relative to baseline (F). […] Calcium mobilization traces and bar graphs along with dose-dependent plots were all generated by GraphPad Prism 7. Analysis of variance with Dunnett’s multiple comparisons test was used for statistical analysis. *P < 0.05. […]

For series [3], the system named is mock-transfected HEK293 cells (Gα16-gust44 only). The series is described as follows: Calcium mobilization assay, mock-transfected cells (Gα16-gust44 only). It counts as cell-based, human. To be noted: any concentration tested (cromolyn 10 mM). On the procedure: as §2
Calcium mobilization traces were raw data obtained from single wells. Changes in fluorescence (ΔF) were calculated as the peak fluorescence minus baseline fluorescence ([Lei et al. 2015]). The calcium mobilization was quantified as the percentage of change (ΔF) relative to baseline (F). […] Calcium mobilization traces and bar graphs along with dose-dependent plots were all generated by GraphPad Prism 7. […]

The next series concerns the target T2, human TAS2R7 (Homo sapiens, UniProt Q9NYW3).
T2 construct: first 45 residues of rat somatostatin receptor 3 (signal peptide) (N); expressed in transfected cells; host or cells: HEK293 (PEAKrapid, ATCC CRL-2828)
T2 sequence (Q9NYW3 1-318): T1 sequence (Q9NYW3 1-318 E264L) with L264E
The series is described as follows: Calcium mobilization assay, HEK293 cells transfected with TAS2R7 and Gα16-gust44. It is filed as cell-based. Conditions: for Activation of TAS2R7 by metal ions: 20 mM, Figure 1A,B; for Dose dependence of TAS2R7 response: Figure 2A,C.
Excerpt: as §1
All tested compounds were purchased from Sigma–Aldrich, with the exception of diphenidol hydrochloride (Reagent World) and L-praziquantel (manufactured by Shaoxing Pharmaceutical Co. Ltd.). All the metal ions were dissolved in the assay solution (130 mM NaCl, 5 mM KCl, 2 mM CaCl2, and 10 mM glucose; pH 7.4) unless specified otherwise, and the bitter compounds (diphenidol, quinine, and chlorphenamine) were dissolved first in dimethyl sulfoxide (DMSO) as stock solution and then diluted with the assay solution; the final DMSO concentration was below 0.5%, with the exception of cromolyn, which is dissolved in the assay solution directly. For our initial screening (Table 1), Hanks’ balanced salt solution (HBSS, ThermoFisher, catalog no. 14025134) supplemented with 10 mM hydroxyethyl piperazineethanesulfonic acid (HEPES) were used as the assay buffer.
as §2
(§3) Calcium mobilization traces were raw data obtained from single wells. Changes in fluorescence (ΔF) were calculated as the peak fluorescence minus baseline fluorescence ([Lei et al. 2015]). The calcium mobilization was quantified as the percentage of change (ΔF) relative to baseline (F). […] Calcium mobilization traces and bar graphs along with dose-dependent plots were all generated by GraphPad Prism 7. Analysis of variance with Dunnett’s multiple comparisons test was used for statistical analysis. *P < 0.05.
To determine whether a TAS2R responds to metal ions, we expressed all 25 human bitter receptors individually in HEK293 cells (PEAKrapid) by transient transfection of a TAS2R along with a coupling chimeric G protein, Gα16-gust44. All TAS2Rs were cloned from human genomic DNA. Activation of human TAS2Rs was monitored by the calcium mobilization assay ([Lei et al. 2015]). We tested these receptors individually for their responses toward metal ions: ZnSO4 (20 mM), CuSO4 (20 mM), and MgCl2 (20 mM) (Table 1, Figure 1A). […] To determine the breadth of tuning of TAS2R7 toward metal ions, we also tested MnCl2 (20 mM), Al2(SO4)3 ([…]), and CaCl2 (20 mM) (Figure 1B).
(In general: Calcium flux is commonly read through the fluorescence of an indicator in the cells.)

The target in series [4] is T3, human TAS2R7 E264^7.32K mutant (Homo sapiens, UniProt Q9NYW3, E264K).
T3 construct: signal peptide: first 45 amino acid residues of rat somatostatin receptor 3 (N); expressed in transfected cells; host or cells: HEK293 PEAKrapid (ATCC CRL-2828), transient, co-transfected with Gα16-gust44
T3 sequence (Q9NYW3 1-318 E264K): T1 sequence (Q9NYW3 1-318 E264L) with L264K
The series is described as follows: Calcium mobilization assay, TAS2R7 mutant E264K. It counts as cell-based. To be noted: 20 mM metal ions except 0.16 mM Al2(SO4)3; cromolyn 10 mM; Figure 6B.
Excerpt: as §1, §2, §3
To assess the importance of these residues, we performed site-directed mutagenesis. We mutated the negatively charged residues E16^1.42, E264^7.32, and E271^7.39 to Q (glutamine), K (lysine), or L (leucine). The facing H94^3.37 was mutated to F (phenylalanine). HEK293 cells that expressed mutant receptors along with Gα16-gust44 were examined for their responses to metal ions (20 mM for all except 0.16 mM Al2(SO4)3) and cromolyn (10 mM, as a positive control) to assess receptor’s function. To determine the expression level of each receptor, we stained the wild-type or mutant receptor-transfected cells using an anti-HSV antibody since all the receptors are tagged with HSV at c-terminal. […]

The target of series [5] is T4, human TAS2R7 H94^3.37F mutant (Homo sapiens, UniProt Q9NYW3, H94F).
T4 construct: signal peptide: first 45 amino acid residues of rat somatostatin receptor 3 (N); expressed in transfected cells; host or cells: HEK293 PEAKrapid (ATCC CRL-2828), transient, co-transfected with Gα16-gust44
T4 sequence (Q9NYW3 1-318 H94F): T1 sequence (Q9NYW3 1-318 E264L) with H94F, L264E
Kind of series: Calcium mobilization assay, TAS2R7 mutant H94F. It counts as cell-based. To be noted: 20 mM metal ions except 0.16 mM Al2(SO4)3; Figure 6B.
Excerpt: as §1
Human embryonic kidney 293 (PEAKrapid, ATCC # CRL-2828) cells were cultured in Opti-MEM medium with 4% fetal bovine serum. […] After incubation, cells were washed 2 times with HBSS (including 10 mM HEPES), incubated in the dark for another 30 min, and then washed with assay solution once more before running the assay using a FlexStation III reader. Relative fluorescence units (excitation at 494 nm, emission at 516 nm, and auto cutoff at 515 nm) were read every 2 s for 2 min. Calcium mobilization traces were recorded.
Calcium mobilization traces were raw data obtained from single wells. Changes in fluorescence (ΔF) were calculated as the peak fluorescence minus baseline fluorescence ([Lei et al. 2015]). The calcium mobilization was quantified as the percentage of change (ΔF) relative to baseline (F). […]

[6] abbreviates: assay solution with 2 mM CaCl2, Figure 2, read-out: EC50, TAS2R7 concentration-response.

For `O=S(=O)([O-])[O-].O=S(=O)([O-])[O-].O=S(=O)([O-])[O-].[Al+3].[Al+3]` [Al2(SO4)3, aluminum sulfate], the “Concentration reached in serum” value in series [1] was 50 µM. Moreover, the “Activity at CaSR” value in the series on CaSR is “weak agonist”. Besides, the “Response of E264L mutant receptor” value in series [2] is reported as “insensitive”. Besides, in series [3], the “Response of mock-transfected cells” value is “no responses”. In addition, on human TAS2R7, the “Activation of TAS2R7 by metal ions” value is given as “activated the receptor”. The “Dose dependence of TAS2R7 response” value on human TAS2R7 was “dose-dependent responses”. The EC50 on human TAS2R7 (assay solution containing calcium, Figure 3A, read-out: EC50, TAS2R7, in the presence of calcium) is 29 µM; on human TAS2R7 (assay solution containing no calcium, Figure 3A, read-out: EC50, TAS2R7, in the absence of calcium), 55 µM; on human TAS2R7 (setting [6]), 39 ± 15 µM. The “Response of E264K mutant receptor” value in series [4] was “specific loss of responses”.

Take `[Cl][Mn][Cl]` [MnCl2]: the “Response of H94F mutant receptor” value in series [5] is listed as “diminished responses”. At human TAS2R7, the “Activation of TAS2R7 by metal ions” value is given as “activated the receptor”. In addition, the “Dose dependence of TAS2R7 response” value on human TAS2R7 is listed as “dose-dependent responses”. Besides, the EC50 was found to be 2240 µM on human TAS2R7 (assay solution containing calcium, Figures 3A, 4C, read-out: EC50, TAS2R7, in the presence of calcium); 7190 µM on human TAS2R7 (assay solution containing no calcium, Figures 3A, 4C, read-out: EC50, TAS2R7, in the absence of calcium); 6590 ± 1730 µM at human TAS2R7 (setting [6]). Also, the “Response of E264K mutant receptor” value in series [4] is “still responsive”.
